Data set [1] concerns the target T1, human TLR7 (Homo sapiens, UniProt Q9NYK1).
T1 construct: host or cells: HEK blue hTLR7 reporter cells
T1 sequence (Q9NYK1 27-1049): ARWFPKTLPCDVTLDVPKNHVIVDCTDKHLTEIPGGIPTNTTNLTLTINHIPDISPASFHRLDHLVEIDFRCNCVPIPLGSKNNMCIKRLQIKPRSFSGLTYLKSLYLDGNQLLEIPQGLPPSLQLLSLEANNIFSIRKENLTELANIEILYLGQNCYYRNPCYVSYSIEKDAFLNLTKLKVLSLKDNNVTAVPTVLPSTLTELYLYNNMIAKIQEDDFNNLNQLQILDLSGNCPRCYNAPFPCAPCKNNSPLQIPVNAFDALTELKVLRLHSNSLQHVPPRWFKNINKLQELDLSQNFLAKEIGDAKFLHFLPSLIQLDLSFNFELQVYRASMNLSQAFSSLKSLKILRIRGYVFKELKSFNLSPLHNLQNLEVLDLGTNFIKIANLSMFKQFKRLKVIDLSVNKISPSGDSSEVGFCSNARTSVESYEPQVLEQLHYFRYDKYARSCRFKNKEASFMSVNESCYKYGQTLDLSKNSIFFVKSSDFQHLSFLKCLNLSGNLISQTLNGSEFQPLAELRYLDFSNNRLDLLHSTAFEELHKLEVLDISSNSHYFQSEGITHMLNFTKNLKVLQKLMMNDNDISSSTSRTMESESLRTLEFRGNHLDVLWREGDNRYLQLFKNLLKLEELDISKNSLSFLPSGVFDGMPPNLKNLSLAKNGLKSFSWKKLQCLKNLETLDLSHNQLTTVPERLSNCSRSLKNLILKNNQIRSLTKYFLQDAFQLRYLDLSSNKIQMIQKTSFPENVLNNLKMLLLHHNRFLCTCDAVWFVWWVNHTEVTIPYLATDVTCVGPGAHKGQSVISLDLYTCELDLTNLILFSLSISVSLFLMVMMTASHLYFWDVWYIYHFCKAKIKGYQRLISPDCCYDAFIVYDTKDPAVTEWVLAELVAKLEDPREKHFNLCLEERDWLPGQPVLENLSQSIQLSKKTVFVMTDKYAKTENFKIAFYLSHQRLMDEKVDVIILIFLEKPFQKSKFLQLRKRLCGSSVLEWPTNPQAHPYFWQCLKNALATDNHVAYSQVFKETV
As to the kind of experiment: HEK-Blue hTLR7 SEAP reporter assay. The settings on record: for TLR7 activity rel. to assay max: average maximal SEAP secretion relative to maximum secretion observed in the assay. Type of data set: cell-based. Here is the method: HEK blue hTLR7 or hTLR8 reporter cells (Invivogen) were cultivated in DMEM High Glucose (Biowest) according to the manufacturer’s instructions. Cells were treated with test compounds and controls at various concentrations in serum-free DMEM and incubated at 37°C, 5% CO2 for 24 h before supernatants were collected.
Relative secreted embryonic alkaline phosphatase (SEAP) activity in the supernatants was determined by quantification of para-Nitrophenyl Phosphate (pNPP)-turnover. Supernatants were diluted 10-fold in a solution containing 1 mM MgCl2, 1 M diethanolamine and 1 mg/mL pNPP and incubated at RT for 15 min before the reaction was stopped by the addition of 0.25 volumes of 1 M NaOH. Absorbance was measured at 405 nm on a Versamax microplate reader (Molecular Devices) and normalized to the mean of >5 solvent controls.
To obtain reliable estimates, replicate measurements of a minimum of 2 experiments were normalized to the maximal SEAP activity of a compound in a given experiment and pooled before fitting a non-linear function to the data.

Data set [2] is described as follows: Stability in whole blood, U937 and RPMI. It counts as in vitro ADME, human. The settings on record: 1 µM, 37°C, over 24 h; in words. As to the method:
Human blood products used in the in vitro assays (for cell stimulation and stability) were obtained from the center for transfusion medicine in Tübingen, Germany (Zentrum für Klinische Transfusionmedizin Tübingen GmbH, (ethical approval number ZKT-FoPro202106-2305-01). Test compounds (1 µM) in either culture medium (RPMI-1640 medium containing 10% fetal bovine serum, 60 mg/l Penicillin G sodium salt and 100 mg/l Streptomycin sulfate (all Biowest)), human blood (diluted 1:1 with culture medium) or a suspension of 5x10^6 cells/ml U937 in culture medium were incubated at 37°C, 450 rpm on a shaking incubator. At the indicated time points 50 µL of blood, cell suspension or medium were collected and prepared for HPLC-MS/MS-Analysis as detailed below.
All samples were extracted with 3 or 6 volumes acetonitrile containing terbuthylazine as an internal standard (ACN) relative to either sample weight or volume. Liquid samples (plasma, culture medium, cell suspensions in stability experiments) were diluted in either 3 (culture medium, cell suspensions) or 6 (plasma) volumes ACN, pellet and blood samples were extracted by addition of ACN followed by sonication for 5 min. […]
Quantification of analytes was performed on an Agilent 1260/1290 Infinity system fitted with an Agilent C18 Poroshell 120 column (4.6 x 50 mm, 2.7 µm) coupled to a triple quadrupole Sciex API 4000 MS/MS detector. […]

[3] abbreviates: 95% CI, HEK-blue human TLR7, 24 h, read-out: TLR7 EC50.
[4] abbreviates: Figure S3, axis c/[µM], pooled from 3 experiments, read-out: compound-specific EC50 in dose response plot, HEK Blue hTLR7.

Where two headings read alike, the source gives them in different places.

By EC50 is commonly meant the concentration needed to bring the measured effect to its halfway point.

As for `CCCCc1nc2c(N)nc3ccccc3c2n1CCC1CCNCC1` [A1], in data set [1], the “Average maximal activity in HEK-Blue hTLR7 relative to RSQ” value is listed as 58% and the “TLR7 activity rel. to assay max” value is 58% ± 16%. Also, in data set [1] (setting [3]), the concentration for a half-maximal effect (EC50) is 0.096 to 0.22 µM. Also, in data set [1] (setting [4]), the concentration for a half-maximal effect (EC50) was 0.146 µM.
In the case of `CCCCc1nc2c(N)nc3ccccc3c2n1CC1CCN(C(=O)CN(C)CC(=O)N(C)[C@H]2C[C@@H](C)O[C@@H](O[C@@H]3[C@@H](C)[C@H](O[C@H]4C[C@@](C)(OC)[C@@H](O)[C@H](C)O4)[C@@H](C)C(=O)O[C@H](CC)[C@@](C)(O)[C@H](O)[C@@H](C)N(C)C[C@H](C)C[C@@]3(C)O)[C@@H]2O)CC1` [A2-mac], in data set [1], the “Average maximal activity in HEK-Blue hTLR7 relative to RSQ” value amounted to 63% and the “TLR7 activity rel. to assay max” value is listed as 63% ± 9%. For the same compound, the EC50 in data set [1] (setting [3]) fell in the range of 1.5 to 2 µM. In data set [1] (setting [4]), the concentration giving a half-maximal response (EC50) came out at 1.76 µM. The “stability in whole blood and cell based (U937) assays” value in data set [2] was “stable”.
On the same counts, the results for `CCCCc1nc2c(N)nc3ccccc3c2n1CCC1CCN(C(=O)CN(C)CC(=O)N(C)C2CC(C)OC(OC3C(C)C(OC4CC(C)(OC)C(O)C(C)O4)C(C)C(=O)OC(CC)C(C)(O)C(O)C(C)N(C)CC(C)CC3(C)O)C2O)CC1` (stereo not drawn) [A1-mac] are 41%, 41% ± 8%, 0.4 to 0.74 µM, 0.554 µM and “stable”.
On to `CCOCc1nc2c(N)nc3ccccc3c2n1CC(C)(C)O` [RSQ, Resiquimod, reference compound], for which the “TLR7 activity rel. to assay max” value in data set [1] is listed as 95% ± 5%.

These data come from publication PMC10319141, “Imidazoquinolines with improved pharmacokinetic properties induce a high IFNα to TNFα ratio in vitro and in vivo” (Frontiers in Immunology, 2023).
